Values quoted from earlier work in US20030096334A1, “Use of injectable dyes for staining an anterior lens capsule and vitreo-retinal interface” (priority 2001, published 2003).

Details: descriptive term only

Cc1cc(-c2ccc(/N=N/c3ccc4c(S(=O)(=O)O)cc(S(=O)(=O)O)c(N)c4c3O)c(C)c2)ccc1/N=N/c1ccc2c(S(=O)(=O)O)cc(S(=O)(=O)O)c(N)c2c1O [Evans Blue, Tetrasodium 6.6′-[3,3′-dimethylbiphenyl-4,4′-diylbis(azo)]bis[4-amino-t-hydroxynaphthalene-1,3-disulphonate]]
solubility in water: very soluble
